Reference: US11325938B2, “CD73 inhibitors” (ORIC Pharmaceuticals, Inc., priority 2018, dated 2022)

target: CD73 (Homo sapiens (Human), UniProt P21589); test: Biochemical assay: inhibition of CD73 activity (AMP hydrolysis, Malachite Green readout); details: CD73 0.3208 nM, AMP 15 μM, 25 mM Tris-HCl pH 7.4, RT, absorbance 620 nm
Experimental: Example A1: Biochemical Assay
Assay Reaction Conditions
• Assay Volume: 70 μl • Reaction Volume: 50 μl • CD73: 0.3208 nM • AMP: 15 μM • Assay Buffer: 25 mM Tris-HCL, pH 7.4, 0.01% Brij-35, 0.01% BSA, 5 mM MgCl2 Assay Procedure:
Made dose titration of testing compounds in assay buffer, 10 points ½ log titrations in duplicates starting at 100 μM.
Added 25 μl of CD73 to each well for a final concentration of 320 pM.
Incubated at RT for 15 min.
Added 25 μl of AMP to each well for a final concentration of 15 μM.
Incubated at RT for 10 min.
Added 10 μl of Malachite Green Reagent A, incubate at RT for 10 min.
Added 10 of Malachite Green Reagent B, incubate at RT for 45 min.
Read the Absorbance on Envision plate reader using excitation filter: Cy5 […].
The ability of the compounds disclosed herein to inhibit CD73 activity was quantified and the respective IC50 values were determined. Table 2 provides the biochemical IC50 values of compounds disclosed herein.

Chain of CD73 (P21589 27-574): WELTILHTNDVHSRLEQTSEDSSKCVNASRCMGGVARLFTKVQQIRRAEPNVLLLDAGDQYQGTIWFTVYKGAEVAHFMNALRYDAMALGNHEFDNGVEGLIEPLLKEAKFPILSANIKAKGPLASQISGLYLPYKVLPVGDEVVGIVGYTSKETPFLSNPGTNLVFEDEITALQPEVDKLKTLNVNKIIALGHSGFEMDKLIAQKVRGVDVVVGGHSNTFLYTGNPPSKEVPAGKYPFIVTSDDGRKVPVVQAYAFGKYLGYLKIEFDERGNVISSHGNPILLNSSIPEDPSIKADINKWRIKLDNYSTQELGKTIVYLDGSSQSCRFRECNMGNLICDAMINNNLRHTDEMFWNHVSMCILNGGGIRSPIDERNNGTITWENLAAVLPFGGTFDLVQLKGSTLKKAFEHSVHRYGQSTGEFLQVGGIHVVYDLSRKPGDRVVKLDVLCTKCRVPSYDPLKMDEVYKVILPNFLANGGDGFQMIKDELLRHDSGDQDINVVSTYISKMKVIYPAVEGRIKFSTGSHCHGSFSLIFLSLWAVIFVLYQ

Row | Compound | IC50
1 | O=P(O)(O)C(CO)(CO)OC[C@H]1O[C@H](n2ncc3c(NCc4ccc(Cl)cc4)nc(Cl)nc32)[C@H](O)[C@@H]1O (racemic) [Example 203, rac-(2-(((2R,3S,4R,5S)-5-(6-chloro-4-((4-chlorobenzyl)amino)-1H-pyrazolo[3,4-d]pyrimidin-1-yl)-3,4-dihydroxytetrahydrofuran-2-yl)methoxy)-1,3-dihydroxypropan-2-yl)phosphonic acid] | ≤ 100 nM
2 | COP(=O)(CP(=O)(O)O)OC[C@H]1O[C@@H](n2nnc3c(NC4CCCC4)cc(Cl)nc32)[C@H](O)[C@@H]1O (stereo partly drawn) [Example 54, (((((2R,3S,4R,5R)-5-(5-chloro-7-(cyclopentylamino)-3H-[1,2,3]triazolo[4,5-b]pyridin-3-yl)-3,4-dihydroxytetrahydrofuran-2-yl)methoxy)(methoxy)phosphoryl)methyl)phosphonic acid] | ≤ 100 nM
3 | O=c1[nH]c(CC(CO)(OC[C@H]2O[C@@H](n3ncc4c(NC5CCCC5)nc(Cl)nc43)[C@H](O)[C@@H]2O)P(=O)(O)O)no1 (mixture of isomers) [Example 206, rac-(2-(((2R,3S,4R,5R)-5-(6-chloro-4-(cyclopentylamino)-1H-pyrazolo[3,4-d]pyrimidin-1-yl)-3,4-dihydroxytetrahydrofuran-2-yl)methoxy)-1-hydroxy-3-(5-oxo-4,5-dihydro-1,2,4-oxadiazol-3-yl)propan-2-yl)phosphonic acid] | ≤ 100 nM
4 | O=P(O)(O)C(CO)OC[C@H]1O[C@@H](n2cnc3c(NC4CCCC4)nc(Cl)nc32)[C@H](O)[C@@H]1O (stereo partly drawn) [Example 75, (1-(((2R,3S,4R,5R)-5-(2-chloro-6-(cyclopentylamino)-9H-purin-9-yl)-3,4-dihydroxytetrahydrofuran-2-yl)methoxy)-2-hydroxyethyl)phosphonic acid] | ≤ 100 nM
5 | O=C(c1ccccc1)C(OC[C@H]1O[C@@H](n2ncc3c(NC4CCCC4)nc(Cl)nc32)[C@H](O)[C@@H]1O)P(=O)(O)O (stereo partly drawn) [Example 41, (1-(((2R,3S,4R,5R)-5-(6-chloro-4-(cyclopentylamino)-1H-pyrazolo[3,4-d]pyrimidin-1-yl)-3,4-dihydroxytetrahydrofuran-2-yl)methoxy)-2-oxo-2-phenylethyl)phosphonic acid] | 100 to 1000 nM
6 | O=P(O)(O)C(CO)(COC1CCC1)OC[C@H]1O[C@@H](n2ncc3c(NC4CCCC4)nc(Cl)nc32)[C@H](O)[C@@H]1O (mixture of isomers) [Example 163, rac-(2-(((2R,3S,4R,5R)-5-(6-chloro-4-(cyclopentylamino)-1H-pyrazolo[3,4-d]pyrimidin-1-yl)-3,4-dihydroxytetrahydrofuran-2-yl)methoxy)-1-cyclobutoxy-3-hydroxypropan-2-yl)phosphonic acid] | ≤ 100 nM
7 | COCC(OC[C@H]1O[C@@H](n2cnc3c(NC4CCCC4)nc(Cl)nc32)[C@H](O)[C@@H]1O)P(=O)(O)O (stereo partly drawn) [Example 160, (1-(((2R,3S,4R,5R)-5-(2-chloro-6-(cyclopentylamino)-9H-purin-9-yl)-3,4-dihydroxytetrahydrofuran-2-yl)methoxy)-2-methoxyethyl)phosphonic acid] | ≤ 100 nM
8 | O=P(O)(O)COC[C@H]1O[C@@H](n2nnc3c(NC4CCC4)cc(Cl)nc32)[C@H](O)[C@@H]1O [Example 23, ((((2R,3S,4R,5R)-5-(5-chloro-7-(cyclobutylamino)-3H-[1,2,3]triazolo[4,5-b]pyridin-3-yl)-3,4-dihydroxytetrahydrofuran-2-yl)methoxy)methyl)phosphonic acid] | ≤ 100 nM
9 | CC(CO)(OC[C@H]1O[C@@H](n2nnc3c(NC4CCCC4)cc(Cl)nc32)[C@H](O)[C@@H]1O)P(=O)(O)O (stereo partly drawn) [Example 66, (2-(((2R,3S,4R,5R)-5-(5-chloro-7-(cyclopentylamino)-3H-[1,2,3]triazolo[4,5-b]pyridin-3-yl)-3,4-dihydroxytetrahydrofuran-2-yl)methoxy)-1-hydroxypropan-2-yl)phosphonic acid] | ≤ 100 nM
10 | O=P(O)(O)C(CO)(Cc1ncccn1)OC[C@H]1O[C@@H](n2ncc3c(NC4CCCC4)nc(Cl)nc32)[C@H](O)[C@@H]1O (mixture of isomers) [Example 168, rac-(2-(((2R,3S,4R,5R)-5-(6-chloro-4-(cyclopentylamino)-1H-pyrazolo[3,4-d]pyrimidin-1-yl)-3,4-dihydroxytetrahydrofuran-2-yl)methoxy)-1-hydroxy-3-(pyrimidin-2-yl)propan-2-yl)phosphonic acid] | ≤ 100 nM

Now from value to molecule:

Row | IC50 | Compound
11 | ≤ 100 nM | O=P(O)(O)[C@](CO)(Cc1nn[nH]n1)OC[C@H]1O[C@@H](n2ncc3c(NCC4CC4)nc(Cl)nc32)[C@H](O)[C@@H]1O (racemic) [Example 196, rac-((R)-2-(((2S,3R,4S,5S)-5-(6-chloro-4-((cyclopropylmethyl)amino)-1H-pyrazolo[3,4-d]pyrimidin-1-yl)-3,4-dihydroxytetrahydrofuran-2-yl)methoxy)-1-hydroxy-3-(2H-tetrazol-5-yl)propan-2-yl)phosphonic acid]
12 | ≤ 100 nM | COCC(C)(OC[C@H]1O[C@@H](n2ncc3c(NC4CCC4)nc(Cl)nc32)[C@H](O)[C@@H]1O)P(=O)(O)O (stereo partly drawn) [Example 159, (2-(((2R,3S,4R,5R)-5-(6-chloro-4-(cyclobutylamino)-1H-pyrazolo[3,4-d]pyrimidin-1-yl)-3,4-dihydroxytetrahydrofuran-2-yl)methoxy)-1-methoxypropan-2-yl)phosphonic acid]
13 | ≤ 100 nM | C[C@@H]1CCC[C@@H]1Nc1nc(Cl)nc2c1cnn2[C@@H]1O[C@H](COC(CO)(Cc2nn[nH]n2)P(=O)(O)O)[C@@H](O)[C@H]1O (mixture of isomers) [Example 209, rac-(2-(((2R,3S,4R,5R)-5-(6-chloro-4-(((1S,2R)-2-methylcyclopentyl)amino)-1H-pyrazolo[3,4-d]pyrimidin-1-yl)-3,4-dihydroxytetrahydrofuran-2-yl)methoxy)-1-hydroxy-3-(2H-tetrazol-5-yl)propan-2-yl)phosphonic acid]
14 | ≤ 100 nM | CC(CO)(OC[C@H]1O[C@@H](n2ncc3c(NC4CCCC4)cc(Cl)nc32)[C@H](O)[C@@H]1O)P(=O)(O)O (stereo partly drawn) [Example 152, (2-(((2R,3S,4R,5R)-5-(6-chloro-4-(cyclopentylamino)-1H-pyrazolo[3,4-b]pyridin-1-yl)-3,4-dihydroxytetrahydrofuran-2-yl)methoxy)-1-hydroxypropan-2-yl)phosphonic acid]
15 | ≤ 100 nM | COC[C@](CO)(OC[C@H]1O[C@@H](n2ncc3c(NC4CCCC4)nc(Cl)nc32)[C@H](O)[C@@H]1O)P(=O)(O)O [Example 150, ((R)-2-(((2R,3S,4R,5R)-5-(6-chloro-4-(cyclopentylamino)-1H-pyrazolo[3,4-d]pyrimidin-1-yl)-3,4-dihydroxytetrahydrofuran-2-yl)methoxy)-1-hydroxy-3-methoxypropan-2-yl)phosphonic acid]
16 | ≤ 100 nM | CC#CC[C@](CO)(OC[C@H]1O[C@@H](n2ncc3c(NC4CCCC4)nc(Cl)nc32)[C@H](O)[C@@H]1O)P(=O)(O)O [Example 98, ((S)-2-(((2R,3S,4R,5R)-5-(6-chloro-4-(cyclopentylamino)-1H-pyrazolo[3,4-d]pyrimidin-1-yl)-3,4-dihydroxytetrahydrofuran-2-yl)methoxy)-1-hydroxyhex-4-yn-2-yl)phosphonic acid]
17 | ≤ 100 nM | CC(CCO)(OC[C@H]1O[C@@H](n2ncc3c(NC4CCCC4)nc(Cl)nc32)[C@H](O)[C@@H]1O)P(=O)(O)O (stereo partly drawn) [Example 56, (2-(((2R,3S,4R,5R)-5-(6-Chloro-4-(cyclopentylamino)-1H-pyrazolo[3,4-d]pyrimidin-1-yl)-3,4-dihydroxytetrahydrofuran-2-yl)methoxy)-4-hydroxybutan-2-yl)phosphonic acid]
18 | ≤ 100 nM | COC[C@@](C)(OC[C@H]1O[C@@H](n2ncc3c(NCC4CC4)nc(Cl)nc32)[C@H](O)[C@@H]1O)P(=O)(O)O [Example 129, ((S)-2-(((2R,3S,4R,5R)-5-(6-chloro-4-((cyclopropylmethyl)amino)-1H-pyrazolo[3,4-d]pyrimidin-1-yl)-3,4-dihydroxytetrahydrofuran-2-yl)methoxy)-1-methoxypropan-2-yl)phosphonic acid]
19 | > 1000 nM | CC(CN1CCOCC1)(OC[C@H]1O[C@@H](n2ncc3c(NC4CCCC4)nc(Cl)nc32)[C@H](O)[C@@H]1O)P(=O)(O)O (stereo partly drawn) [Example 71, (2-(((2R,3S,4R,5R)-5-(6-chloro-4-(cyclopentylamino)-1H-pyrazolo[3,4-d]pyrimidin-1-yl)-3,4-dihydroxytetrahydrofuran-2-yl)methoxy)-1-morpholinopropan-2-yl)phosphonic acid]
20 | ≤ 100 nM | O=C(O)COCC(CO)(OC[C@H]1O[C@@H](n2ncc3c(NC4CCCC4)nc(Cl)nc32)[C@H](O)[C@@H]1O)P(=O)(O)O (mixture of isomers) [Example 198, rac-2-(2-(((2R,3S,4R,5R)-5-(6-chloro-4-(cyclopentylamino)-1H-pyrazolo[3,4-d]pyrimidin-1-yl)-3,4-dihydroxytetrahydrofuran-2-yl)methoxy)-3-hydroxy-2-phosphonopropoxy)acetic acid]
21 | ≤ 100 nM | C[C@@](CO)(OC[C@H]1O[C@@H](n2ncc3c(N[C@@H]4CC[C@H]5CCC[C@H]54)nc(Cl)nc32)[C@H](O)[C@@H]1O)P(=O)(O)O (racemic) [Example 182, rac-((R)-2-(((2R,3S,4R,5R)-5-(6-chloro-4-(((1R,3aR,6aR)-octahydropentalen1-yl)amino)-1H-pyrazolo[3,4-d]pyrimidin-1-yl)-3,4-dihydroxytetrahydrofuran-2-yl)methoxy)-1-hydroxypropan-2-yl)phosphonic acid]
